Experimental data taken from patent US7601805B2, “Photoprotein with improved bioluminescence” (AXXAM S.R.L., priority 2002, dated 2009).

How the values were obtained:
[1] = biological target: T1, rat VR1 capsaicin receptor (Rattus norvegicus, UniProt O35433); test: Capsaicin-stimulated flash luminescence in CHO cells expressing Apophotin and rat VR1; type: cell-based; details: 10 and 50 μM capsaicin; CHO cells with Apophotin and rat VR1 (FIG. 5)
T1 construct: expressed in transfected cells; host or cells: CHO
Description: The specific agonist, capsaicin, was used at a concentration of 10 and 50 μM.
3.3 CHO cell lines expressing both Apophotin and the rat VR1 capsaicin receptor—a calcium-permeable ion channel—were grown to 80-95% confluence in tissue culture flasks and harvested by trypsinization. Cells were dispensed at 10,000 cells/well in a 96-well white plates in growth medium and incubated overnight at 37° C. in a humidified incubator at 5% CO2. For luminescence experiments, the cells were loaded with coelenterazine 10 μM for 3 h at 37° C., 5% CO2. Calcium response was stimulated by addition of 10 and 50 μM capsaicin to each well. The kinetics of flash luminescence was followed using Labsystem Luminoskan Ascent, which injects reagents and records light emission from each single well.

[2] = system: endogenous ATP receptor expressed by CHO-K1 cell; test: ATP-stimulated light emission in CHO-K1 cells transfected with Photin DNA; type: cell-based; details: two different concentrations of ATP (FIG. 3A)
Description: Cell transfection, harvesting, and Photin expression were performed as described in Example 1. Cells were treated with two different concentration of ATP. (B) The CHO-K1 cells transfected with Obelin DNA were used as positive control. Luminescence is expressed in RLU (relative light units).
3.1 Photin-expressing clones have been obtained by transfection of CHO-K1 cells (Materials and Methods). Two days after transfection the cells were trypsinized and diluted 10 or 100 times. Once the cells were grown up to well isolated colonies, the colonies were transferred to new plates and selected on the basis of their functional response (luminescent signal) to different concentration of ATP, which is known to stimulate the CHO endogenous receptor and to rise the cytoplasmic Ca^++ concentration. At the end of each experiment, cells were lysed by perfusion of a solution containing TritonX-100 and CaCl2. The active photoprotein was reconstituted incubating the cells with 10 μM coelenterazine diluted in PBS containing 2 mM calcium, in the dark at 37° C. in a 5% CO2 atmosphere for 3 hrs. For light emission measurement, cells were lysed in the presence of calcium and the emitted luminescence recorded. […] To detect changes in calcium concentrations, 10, 50 and 100 μM ATP were injected and the kinetics of calcium response determined. […]

T1 sequence (O35433 whole entry): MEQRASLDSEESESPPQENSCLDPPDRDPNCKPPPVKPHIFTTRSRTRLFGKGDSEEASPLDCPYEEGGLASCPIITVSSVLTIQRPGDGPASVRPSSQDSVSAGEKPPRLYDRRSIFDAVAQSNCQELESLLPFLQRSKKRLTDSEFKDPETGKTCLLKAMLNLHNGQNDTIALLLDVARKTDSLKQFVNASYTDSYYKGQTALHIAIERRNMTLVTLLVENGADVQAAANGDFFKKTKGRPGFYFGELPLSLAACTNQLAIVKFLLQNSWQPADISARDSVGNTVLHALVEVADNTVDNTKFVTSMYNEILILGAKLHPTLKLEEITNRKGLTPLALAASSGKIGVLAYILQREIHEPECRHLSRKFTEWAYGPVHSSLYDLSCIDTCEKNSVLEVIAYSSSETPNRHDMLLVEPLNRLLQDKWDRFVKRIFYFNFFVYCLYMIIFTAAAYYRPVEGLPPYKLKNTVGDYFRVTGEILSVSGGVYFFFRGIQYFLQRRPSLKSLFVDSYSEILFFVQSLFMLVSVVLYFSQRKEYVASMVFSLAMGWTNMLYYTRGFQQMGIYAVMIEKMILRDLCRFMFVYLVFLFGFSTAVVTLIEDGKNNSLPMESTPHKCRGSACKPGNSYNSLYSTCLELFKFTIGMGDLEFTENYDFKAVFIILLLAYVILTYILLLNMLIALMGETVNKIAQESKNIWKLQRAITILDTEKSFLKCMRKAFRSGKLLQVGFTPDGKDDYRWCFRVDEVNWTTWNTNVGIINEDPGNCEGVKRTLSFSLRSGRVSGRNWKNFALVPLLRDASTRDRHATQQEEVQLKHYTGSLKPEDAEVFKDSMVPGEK

COc1cc(CNC(=O)CCCC/C=C/C(C)C)ccc1O [capsaicin]
time of peak level of luminescence signal [1]: about 10 seconds | time within which the rapid and transient luminescence signal occurred [1]: ≤ 30 s

Nc1ncnc2c1ncn2[C@@H]1O[C@H](COP(=O)(O)OP(=O)(O)OP(=O)(O)O)[C@@H](O)[C@H]1O [ATP]
light emission upon stimulation of the endogenous ATP receptor [2]: dose dependent light emission
